Results taken from patent US9134328B2, “Methods of using benzothiazole derivative compounds and compositions” (University of Pittsburgh—Of the Commonwealth System of …, priority 2003, dated 2015).

Columns and labels:
[1] = In vivo mouse brain entry studies; design: species or system female Swiss-Webster mice
Protocol: This study reflects brain entry and clearance from normal brain tissue.
The mice were anesthetized and killed by cardiac excision following cardiac puncture to obtain arterial blood samples at 2 minutes or 30 minutes post-injection. The mouse brains were rapidly excised and divided into the cerebellum and the remaining whole brain (including brain stem) fractions. The brain samples were counted in a gamma well-counter, and the counts were decay-corrected to the time of injection relative to ^125I or ^18F standards prepared from the injection solution to determine the percent injected dose (% ID) in the samples. The brain samples were weighed to determine the percent injected dose per gram tissue (% ID/g), and this quantity was multiplied by the whole body weight (in kg) to determine the body-weight normalized radioactivity concentration [(% ID-kg)/g] of each tissue sample.

[2] = In vivo baboon PET imaging studies; conditions: for peak maximum radioactivity remaining in brain at later time points / early-to-late brain radioactivity concentration: baboon brain; for early-to-late brain radioactivity concentration: ratio of early to late radioactivity concentration; for rate of non-specific clearance (t1/2): baboon cerebellum (reference region devoid of specific binding); for higher concentration of radioactivity at 90 minutes in white matter regions than in gray matter regions / clearance half-time from baboon brain gray matter / brain penetration of radioactivity at early time points: control baboon; for higher concentration of radioactivity at 90 minutes in white matter regions than in gray matter regions: 90 minutes post-injection, white matter vs gray matter such as temporal cortex; for clearance half-time from baboon brain gray matter / brain penetration of radioactivity at early time points: intravenous injection; for clearance half-time from baboon brain gray matter: PET; for brain penetration of radioactivity at early time points: PET time-activity curve, all three brain regions
Protocol: PET imaging studies in adult baboons (Papio anubis) (weight 15-35 kg, ages 6-12 years) were performed with Compound B and Compound C in accordance with the Guide for the Care and Use of Laboratory Animals adopted by NIH and with the approval of the local Institutional Animal Care and Use Committee. Prior to PET imaging, the animals were initially sedated with ketamine (10-15 mg/kg, i.m.), given atropine (0.5 mg, i.m.) to control salivation and heart rate, and intubated. The baboons were subsequently maintained on a ventilator with isofluorane (0.5-1.25%) anesthesia and medical air. Pancuronium bromide was administered as necessary (intravenously, up to 0.06 mg/kg/hour, titrated to effect) to keep the animals immobilized during the study. A femoral artery catheter was inserted to monitor blood pressure and sample arterial blood, and an intravenous catheter was placed in an antecubital vein for radiotracer injection and to administer fluids as necessary throughout the course of the imaging study. Blood pressure, heart and respiratory rates, and expired CO2 and oxygen saturation levels were monitored continuously during the PET studies. The baseline rectal body temperature (˜37° C.) was maintained using a heating blanket (Gaymar, Orchard Park, N.Y.) and temperature regulator (Yellow Springs Instruments, Yellow Springs, Ohio). Prior to scanning, the baboon's head was fixed so that the image planes were acquired approximately parallel to the orbital-meatal line.
PET data were acquired using an ECAT HR+PET scanner (CTI PET Systems, Knoxyille, Tenn.) in 3D imaging mode (63 parallel slices; 15.2 cm axial field-of-view; 4.1 mm full-width half-maximum in-plane resolution). A Neuro-Insert (CTI PET Systems) was used to reduce the contribution of scattered photon events. After the baboons were positioned in the PET scanner, a windowed transmission scan (10-15 minutes) was obtained for attenuation correction of the PET emission data using rotating ^68Ge/^68Ga rods. Compound B and Compound C were administered intravenously over 20 seconds, and a dynamic series of PET scans were acquired over 90 minutes using 26 frames of increasing length (6×20 seconds; 4×30 seconds; 6×60 seconds; 4×5 minutes; 6×10 minutes). Approximately 185 MBq (˜5 mCi) of a high specific activity (>14.8 GBq/μmol) Compound B or Compound C was injected in a baboon. In other studies, 148-296 MBq (4-8 mCi) of a high specific activity (>18.5 GBq/μmol) reference PET radiotracer was injected, including either [^11C](+)-McN5652, [carbonyl-^11C]WAY100635, or [^18F]altanserin. The PET data were reconstructed using a Hanning filter (Nyquist cut-off) and corrected for decay, photon attenuation, and scatter.
An MRI scan was obtained for each baboon using a 1.5T GE Signa scanner (GE Medical Systems, Milwaukee, Wis.) equipped with a standard head coil. A volumetric spoiled gradient recalled (SPGR) MR sequence with parameters for high contrast among gray matter, white matter, and cerebral spinal fluid (CSF) was acquired in the coronal plane (TE=5, TR=24, flip angle=40°, slice thickness=1.5 mm, NEX=2, field of view 12 cm, voxel size=0.94×1.25×1.5 mm). Each individual baboon's MR image was coregistered to the PET data using the automated image registration (AIR) algorithm for cross-modality image alignment and reslicing. The initial 16 frames ([…] post-injection) of the dynamic PET images were summed together into images consisting of a single frame. Prior to co-registration, both the MR and summed PET images were edited using the ANALYZE software package (Mayo Clinic. Rochester, Minn.) to remove extracerebral tissues that could possibly confound the co-registration process. The edited MR images were then coregistered to the summed PET image and resliced to yield MR images in the same spatial orientation and resolution as the summed PET images.

[3] = baboon cerebellar time-activity curves, reference PET radioligands

| Compound | peak maximum radioactivity remaining in brain at later time points [2] | early-to-late brain radioactivity concentration [2] | rate of non-specific clearance (t1/2) [2] | higher concentration of radioactivity at 90 minutes in white matter regions than in gray matter regions [2] | clearance half-time from baboon brain gray matter [2] | brain penetration of radioactivity at early time points [2] | non-specific binding clearance rate (in words) [2, 3] | other results |
| --- | --- | --- | --- | --- | --- | --- | --- | --- |
| CNc1ccc(-c2nc3ccc(O)cc3s2)cc1[18F] [Compound B, 2-(3-[^18F]-fluoro-4-methylamino-phenyl)-benzothiazol-6-ol] | about 25% | about 4 | 17 min | ~30% | about 17 minutes | about 0.40 % ID-kg/g | – | 2 min./30 min. Ratio ([1]; mouse, in vivo): 10; Radioactivity Conc. at 2 min. ([1]; mouse, in vivo): 0.29 % ID-kg/g; Radioactivity Conc. at 30 min. ([1]; mouse, in vivo): 0.030 % ID-kg/g; brain entry and clearance (in words) ([1]; mouse, in vivo): relatively high brain entry at early time points and fast clearance at later time points |
| Oc1ccc2nc(-c3ccc(NCCC[18F])cc3)sc2c1 [Compound C, 2-[4-(3-^18F-fluoro-propylamino)-phenyl]benzothiazol-6-ol] | about 15% | about 6 | 10 min | < 10% | about 10 minutes | about 0.22 % ID-kg/g | – | brain entry and clearance (in words) ([1]; mouse brain, 2 and 30 minutes post-injection): relatively high brain entry at early time points and fast clearance at later time points; Radioactivity Conc. at 2 min. ([1]; mouse brain, 2 minutes post-injection, lateral tail vein injection, wild type mice without amyloid deposits): 0.17 % ID-kg/g; Radioactivity Conc. at 30 min. ([1]; mouse brain, 30 minutes post-injection, lateral tail vein injection, wild type mice without amyloid deposits): 0.011 % ID-kg/g; 2 min./30 min. Ratio ([1]; ratio of 2 minutes-to-30 minutes (% ID-kg)/g values, mouse brain, measure of non-specific binding clearance rate): 16 |
| [11CH3]Sc1ccc([C@@H]2CN3CCC[C@@H]3c3ccccc32)cc1 [[^11C](+)-McN5652, reference compound] | – | – | – | – | – | – | relatively slow in vivo clearance | – |
| O=C(c1ccc([18F])cc1)C1CCN(CCn2c(=S)[nH]c3ccccc3c2=O)CC1 [[^18F]altanserin, reference compound] | – | – | – | – | – | – | relatively rapid non-specific binding clearance rates | – |
| COc1ccccc1N1CCN(CCN(c2ccccn2)[11C](=O)C2CCCCC2)CC1 [[carbonyl-^11C]WAY100635, reference compound] | – | – | – | – | – | – | – | non-specific binding clearance rate (in words) ([2]; in vivo): relatively rapid non-specific binding clearance rates |
